In patent publication US20030119813A1, “Derivatives of pyrimido[6,1-a]isoquinolin-4-one” (priority 2001, published 2003):

Columns and labels:
[1] = tested on: LPS induced TNF-α release from human monocytes; assay: LPS induced TNF-α release from human monocytes; format: cell-based; conditions: Monocyte
Protocol: 6,7-Dihydro-2-(2,6-diisopropylphenoxy)-9,10-dimethoxy-4H-pyrimido-[6,1-a]isoquinolin-4-one (compound of Example 2) was tested for effects on LPS induced TNF-α release from human monocytes.

[2] = tested on: guinea-pig tracheal rings; assay: Organ bath experiments, guinea-pig tracheal rings, electrical field stimulation; conditions: final concentration 10 μM, n=1
Protocol: Guinea-pig tracheal rings were suspended in organ baths under 1 g tension between two electrodes and subjected to electrical field stimulation (3 Hz, 0.1 ms duration and 20V (approx 400 mAmps) generated every 100 sec by means of physiological square wave-stimulator. The compounds of Examples 1, 2 and 8 were dissolved in DMSO containing Tween 80 (10%) and distilled water (0.01M), which were then added to the organ bath to give a final concentration of 10 μM.

[3] = tested on: human mononuclear cells stimulated by PHA; assay: Proliferation of human mononuclear cells stimulated by PHA ([3H]-thymidine); format: cell-based; conditions: PHA 2 μg/ml, n=6, read-out: IC50 against proliferation of human mononuclear cells stimulated with PHA
Protocol: Normal healthy volunteers underwent phlebotomy and 25 ml of blood was collected. Mononuclear cells were separated and purified according to the method of Banner et al. (Banner et al. Br. J. Pharmacol. 116 3169-3174 (1995)). Human peripheral mononuclear cells (100,000 per well) were stimulated for 24 h with phytohaemagglutinin (PHA, 2 μg/ml) in the absence or presence of the compounds of Examples 1, 2 and 8 (0.001-100 μM) at 37° C. in a 95% air, 5% CO2 atmosphere. Twenty four hours later, [^3H]-thymidine (0.1 μCi) was added to each well and the cells were incubated for a further 24 h period. Cells were then harvested onto glass fibre filters using a cell harvester (ICN Flow, Buckinghamshire) and counted in a scintillation counter.

[4] = tested on: guinea-pig isolated trachea; assay: Superfusion of guinea-pig tracheal rings, contraction to electrical field stimulation; conditions: for inhibition of contractile responses, duration of action: electrical-induced contraction of guinea-pig isolated trachea; for OT50 (onset time: time to reach 50% of the maximum inhibition of the contractile response) / RT50 (recovery time: time for 50% reversal of the maximum inhibition after terminating exposure): superfused guinea-pig trachea, electrical field stimulation, 10 μM; for OT50 (onset time: time to reach 50% of the maximum inhibition of the contractile response): mean and s.e. mean of three observations; for RT50 (recovery time: time for 50% reversal of the maximum inhibition after terminating exposure): washout
Protocol: Superfusion of guinea-pig tracheal rings was performed according to a previously described method (Coleman et al. Pulmonary Pharmacology 9 107-117 (1996)). Briefly, guinea-pig tracheal preparations were cut into rings and then opened by sectioning the ring opposite the smooth muscle and suspended between two platinum electrodes under 1 g tension. The tissues were superfused at a rate of from 1 to 3.25 ml/min with Krebs-Henseleit solution at 37° C. containing the cyclooxygenase inhibitor, indomethacin (5 μM) and bubbled with 95% O2 and 5% CO2. Tracheal preparations were allowed to equilibrate for 40 minutes before commencement of electrical stimulation, delivered as a 10 s train of square wave pulses at 3 Hz, 0.1 ms duration and 20V (approx 400 mamps) generated every 100 sec by means of physiological square wave-stimulator. The compounds of the present invention were superfused at a rate of 0.2 to 0.3 ml/min ad contractile responses to electrical field stimulation were recorded on a Macintosh computer using MacLab sor vare. The drug was prepared in DMSO and diluted in Krebs-Henseleit solution which yielded a final superfusion concentration of 0.05 to 0.1% DMSO.
The duration of action was determined and expressed as onset time (OT50) and recovery time (RT50).

PDE3 (human platelet) = molecular target: T1, PDE3 (human platelet) (Homo sapiens, UniProt Q14432); assay: PDE3 inhibition; format: biochemical
T1 construct: (human platelet); from tissue; host or cells: human platelets
T1 sequence (Q14432 whole entry): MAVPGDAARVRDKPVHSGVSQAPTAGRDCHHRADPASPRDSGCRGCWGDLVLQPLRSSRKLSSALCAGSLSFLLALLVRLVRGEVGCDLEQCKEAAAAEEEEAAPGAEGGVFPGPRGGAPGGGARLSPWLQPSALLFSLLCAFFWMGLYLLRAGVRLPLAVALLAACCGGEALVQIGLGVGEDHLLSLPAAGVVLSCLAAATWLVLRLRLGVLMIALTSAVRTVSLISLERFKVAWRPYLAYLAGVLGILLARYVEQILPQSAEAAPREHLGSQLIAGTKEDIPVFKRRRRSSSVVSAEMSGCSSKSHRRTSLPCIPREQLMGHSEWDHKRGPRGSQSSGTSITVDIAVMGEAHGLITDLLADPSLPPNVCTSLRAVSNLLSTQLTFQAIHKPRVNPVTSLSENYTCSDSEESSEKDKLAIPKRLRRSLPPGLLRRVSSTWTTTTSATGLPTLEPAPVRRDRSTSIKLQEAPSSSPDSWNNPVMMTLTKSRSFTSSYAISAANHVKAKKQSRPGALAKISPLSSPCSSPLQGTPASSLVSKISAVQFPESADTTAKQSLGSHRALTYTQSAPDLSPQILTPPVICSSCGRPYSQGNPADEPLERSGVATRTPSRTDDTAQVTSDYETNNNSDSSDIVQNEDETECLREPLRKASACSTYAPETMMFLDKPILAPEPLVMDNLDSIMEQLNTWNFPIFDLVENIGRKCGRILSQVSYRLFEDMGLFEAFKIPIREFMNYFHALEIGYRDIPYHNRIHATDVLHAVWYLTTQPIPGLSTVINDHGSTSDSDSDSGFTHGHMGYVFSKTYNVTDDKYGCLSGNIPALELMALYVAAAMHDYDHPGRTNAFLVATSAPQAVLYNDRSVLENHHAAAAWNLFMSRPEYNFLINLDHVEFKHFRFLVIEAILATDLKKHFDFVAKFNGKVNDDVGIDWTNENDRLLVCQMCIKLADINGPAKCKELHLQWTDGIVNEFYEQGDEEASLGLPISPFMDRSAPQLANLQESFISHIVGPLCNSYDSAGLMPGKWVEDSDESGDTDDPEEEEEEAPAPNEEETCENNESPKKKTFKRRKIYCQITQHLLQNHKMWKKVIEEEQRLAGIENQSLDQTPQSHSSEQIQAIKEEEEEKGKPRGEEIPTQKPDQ

PDE4 (human neutrophil) = assay: PDE4 inhibition; format: biochemical
[5] = tested on: histamine induced bronchospasm; assay: Histamine induced bronchospasm, inhaled dry powder, guinea-pig; format: in vivo
Protocol: 1. The above compound was tested in a model of histamine induced bronchospasm. Conscious guinea-pigs were exposed to dry powder (micronised) of the compound. The drug was blended with lactose so that the final concentration was 0.25, 2.5 and 25%. At various times after exposure to drug the animals were anaesthetised and challenged with varying doses of histamine. Total airway resistance and mean arterial blood pressure were recorded.

[6] = tested on: mean arterial blood pressure; assay: Intravenous administration to urethane anaesthetised guinea-pigs, mean arterial blood pressure; format: in vivo, guinea-pig; conditions: 0.1 to 300 μg/kg
Protocol: 2. […] The compound was dissolved in DMSO then diluted with saline (there was evidence that the compound had come out of solution).

[7] = tested on: recruitment of eosinophils to the lungs; assay: Antigen induced eosinophilia in the ovalbumin sensitised guinea-pig; format: in vivo; conditions: 10 mg/kg orally 1 hour prior to antigen challenge, ovalbumin sensitised guinea-pigs

Row | Compound | inhibition of contractile responses, duration of action [4] | OT50 (onset time: time to reach 50% of the maximum inhibition of the contractile response) [4] | RT50 (recovery time: time for 50% reversal of the maximum inhibition after terminating exposure) [4] | also measured
1 | COc1ccc([C@H](Cc2ccncc2)c2ccccc2)cc1OC1CCCC1 [CDP 840] |  |  |  | IC50 ([1]; n = 6): 92 nM
2 | COc1cc2c(cc1OC)-c1cc(Oc3c(C)cccc3C)nc(=O)n1CC2 [Example 1, 6,7-Dihydro-2-(2,6-dimethylphenoxy)-9,10-dimethoxy-4H-pyrimido-[6,1-a]isoquinolin-4-one] |  |  |  | inhibition of the contractile response to electrical field stimulation [2]: complete inhibition; IC50 [3]: 5130 nM
3 | COc1cc2c(cc1OC)-c1cc(Oc3c(C(C)C)cccc3C(C)C)nc(=O)n1CC2 [Example 2, 6,7-Dihydro-2-(2,6-diisopropylphenoxy)-9,10-dimethoxy-4H-pyrimido-[6,1-a]isoquinolin-4-one] | inhibit the contractile responses with a long duration of action | 24.9 ± 5.0 min | >240 min | inhibition of the contractile response to electrical field stimulation [2]: complete inhibition; IC50 [3]: 2900 nM; IC50 (PDE3 (human platelet)): 107 nM; IC50 (PDE4 (human neutrophil)): 1200 nM; IC50 ([1]; n = 6): 250 nM; protection against histamine induced bronchospasm (total airway resistance) ([5]; conscious guinea-pigs exposed to dry powder (25% in lactose)): significant protection against histamine induced bronchospasm; effect on mean arterial blood pressure ([5]; guinea-pigs, inhaled dry powder (25%)): without changing mean arterial blood pressure; effect on mean arterial blood pressure [6]: dose dependant reduction in mean arterial blood pressure; recruitment of eosinophils to the lungs following antigen challenge [7]: significantly inhibited
4 | CCc1cccc(CC)c1Oc1cc2n(c(=O)n1)CCc1cc(OC)c(OC)cc1-2 [Example 3, 2-(2,6-diethylphenoxy)-6,7-dihydro-9,10-dimethoxy-4H-pyrimido-[6,1-a]isoquinolin-4-one] | inhibit the contractile responses with a long duration of action | 17 ± 1 min | >240 min | 
5 | COc1cc2c(cc1OC)-c1cc(Oc3c(Cl)cccc3Cl)nc(=O)n1CC2 [Example 8, 2-(2,6-Dichlorophenoxy)-6,7-dihydro-9,10-dimethoxy-4H-pyrimido-[6,1-a]isoquinolin-4-one] |  |  |  | inhibition of the contractile response to electrical field stimulation [2]: complete inhibition; IC50 [3]: 8220 nM
6 | COc1cc2c(cc1OC)-c1cc(Oc3ccccc3CC(C)C)nc(=O)n1CC2 [Example 10, 9,10-Dimethoxy-2-(2-isobutylphenoxy)-6,7-dihydro-4H-pyrimido[6,1-a]isoquinolin-4-one] | inhibit the contractile responses with a long duration of action | 17.5 ± 1.25 min | >300 min | 
7 | COc1cc2c(cc1OC)-c1cc(Oc3ccccc3C(C)(C)C)nc(=O)n1CC2 [Example 11, 2-(2-tert-butylphenoxy)-9,10-dimethoxy-6,7-dihydro-4H-pyrimido[6,1-a]isoquinolin-4-one] | inhibit the contractile responses with a long duration of action | 14.7 ± 1.33 min | >300 min | 
8 | CCc1ccccc1Oc1cc2n(c(=O)n1)CCc1cc(OC)c(OC)cc1-2 [Example 12, 9,10-Dimethoxy-2-(2-ethylphenoxy)-6,7-dihydro-4H-pyrimido[6,1-a]isoquinolin-4-one] | inhibit the contractile responses with a long duration of action | 9.7 ± 0.6 min | 263 min | 
9 | COc1cc2c(cc1OC)-c1cc(Oc3ccccc3C3CCCC3)nc(=O)n1CC2 [Example 13, 2-(2-Cyclopentylphenoxy)-9,10-dimethoxy-6.7-dihydro-4H-pyrimido[6,1-a]-isoquinolin-4-one] | inhibit the contractile responses with a long duration of action | 18.6 ± 1.5 min | >300 min | 
10 | CN/C(=N\c1ccc(C2=NNC(=O)CC2C)cc1)NC#N (centres unmarked) [Siguazodan] |  |  |  | IC50 ([1]; unit printed in the cell beside the value): > 100000 nM
11 | COc1cc2c(cc1OC)-c1cc(=Nc3c(C)cc(C)cc3C)n(C)c(=O)n1CC2 [Trequinsin, 9,10-dimethoxy-3-methyl-2-mesitylimino-2,3,6,7-tetrahydro-4H-pyrimido[6,1-a]isoquinolin-4-one, reference compound] |  | 14 min | 146 min | 
